Measurements as given in publication PMC4207539 (Journal of Medicinal Chemistry, 2014).
pEC50: −log10 of the molar value. Values joined by “and” are separate entries in the source; they are usually repeats but may differ in a detail not shown here. Equal entries are not always repeated.

Legend:
VEEV TC-83 strain = format: cell-based, Venezuelan equine encephalitis virus
VEEV TrD strain = format: cell-based, Venezuelan equine encephalitis virus
[1] = male, in vivo
CYP2C9 = CYP2C9 (Homo sapiens, UniProt P11712); assay: in vitro; details: pH 7.4
Sequence of CYP2C9 (P11712 whole entry): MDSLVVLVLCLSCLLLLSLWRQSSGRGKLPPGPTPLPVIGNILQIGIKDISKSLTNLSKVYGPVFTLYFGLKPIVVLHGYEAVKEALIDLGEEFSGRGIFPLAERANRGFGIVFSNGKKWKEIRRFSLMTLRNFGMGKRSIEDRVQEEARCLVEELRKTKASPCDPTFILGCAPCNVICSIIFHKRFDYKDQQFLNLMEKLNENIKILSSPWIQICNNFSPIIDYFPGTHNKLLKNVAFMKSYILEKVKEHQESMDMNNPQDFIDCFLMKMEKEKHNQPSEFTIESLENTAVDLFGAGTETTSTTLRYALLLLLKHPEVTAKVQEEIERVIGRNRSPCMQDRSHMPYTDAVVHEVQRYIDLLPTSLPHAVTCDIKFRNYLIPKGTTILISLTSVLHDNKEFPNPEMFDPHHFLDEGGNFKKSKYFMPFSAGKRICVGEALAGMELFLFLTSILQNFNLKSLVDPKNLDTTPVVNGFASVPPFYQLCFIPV

[2] = system: panel of 67 GPCRs, ion channels and transporters; format: binding; details: 10 µM
VEEV (TC-83) [3] = details: mouse, in vivo
CYP2C19 = CYP2C19 (Homo sapiens, UniProt P33261); assay: in vitro; details: pH 7.4
Sequence of CYP2C19 (P33261 whole entry): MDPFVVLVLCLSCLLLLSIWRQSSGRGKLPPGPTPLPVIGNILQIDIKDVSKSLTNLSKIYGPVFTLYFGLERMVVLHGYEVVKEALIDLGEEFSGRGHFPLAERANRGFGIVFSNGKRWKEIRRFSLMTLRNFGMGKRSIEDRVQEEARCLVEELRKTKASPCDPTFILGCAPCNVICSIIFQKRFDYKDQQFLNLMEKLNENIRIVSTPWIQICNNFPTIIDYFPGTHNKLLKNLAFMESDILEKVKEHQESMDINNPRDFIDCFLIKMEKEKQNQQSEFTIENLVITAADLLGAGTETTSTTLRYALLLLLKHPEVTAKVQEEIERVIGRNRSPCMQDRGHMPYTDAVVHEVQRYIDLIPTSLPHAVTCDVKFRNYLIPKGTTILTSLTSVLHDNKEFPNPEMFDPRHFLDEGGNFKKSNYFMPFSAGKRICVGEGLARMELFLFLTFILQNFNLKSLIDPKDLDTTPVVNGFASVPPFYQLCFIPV

CYP3A4 = CYP3A4 (Homo sapiens, UniProt P08684); assay: in vitro; details: pH 7.4
Sequence of CYP3A4 (P08684 whole entry): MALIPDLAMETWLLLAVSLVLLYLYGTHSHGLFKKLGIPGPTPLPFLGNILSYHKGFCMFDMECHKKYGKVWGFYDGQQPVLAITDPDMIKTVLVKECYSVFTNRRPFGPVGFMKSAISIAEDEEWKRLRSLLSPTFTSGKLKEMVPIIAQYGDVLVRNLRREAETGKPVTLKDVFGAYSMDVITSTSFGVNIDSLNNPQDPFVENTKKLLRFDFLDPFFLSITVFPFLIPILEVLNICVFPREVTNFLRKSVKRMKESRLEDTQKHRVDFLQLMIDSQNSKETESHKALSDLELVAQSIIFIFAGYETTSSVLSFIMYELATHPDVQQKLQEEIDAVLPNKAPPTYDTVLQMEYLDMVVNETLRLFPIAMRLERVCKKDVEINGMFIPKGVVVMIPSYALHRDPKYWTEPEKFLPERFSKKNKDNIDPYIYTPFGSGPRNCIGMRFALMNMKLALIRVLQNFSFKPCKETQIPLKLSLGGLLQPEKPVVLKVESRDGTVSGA

CYP2D6 = CYP2D6 (Homo sapiens, UniProt P10635); assay: in vitro; details: pH 7.4
Sequence of CYP2D6 (P10635 whole entry): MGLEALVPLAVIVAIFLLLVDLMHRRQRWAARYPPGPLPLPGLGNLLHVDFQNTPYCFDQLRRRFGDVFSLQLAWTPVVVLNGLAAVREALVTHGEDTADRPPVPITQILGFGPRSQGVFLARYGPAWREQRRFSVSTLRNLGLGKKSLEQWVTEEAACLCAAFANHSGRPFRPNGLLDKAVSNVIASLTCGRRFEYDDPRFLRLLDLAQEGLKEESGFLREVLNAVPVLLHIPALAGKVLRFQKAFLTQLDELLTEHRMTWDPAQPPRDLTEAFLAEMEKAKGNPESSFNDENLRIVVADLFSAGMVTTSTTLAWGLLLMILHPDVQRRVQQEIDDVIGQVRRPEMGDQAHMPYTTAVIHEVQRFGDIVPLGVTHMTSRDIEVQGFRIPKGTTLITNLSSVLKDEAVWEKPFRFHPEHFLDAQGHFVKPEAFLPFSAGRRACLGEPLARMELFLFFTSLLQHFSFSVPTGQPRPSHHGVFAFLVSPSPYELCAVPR

VEEV (TC-83) [4] = assay: microbe, parasite or virus in culture; details: Venezuelan equine encephalitis virus, read-out: EC50, several VEEV strains
[5] = mouse, in vivo, ip
Fa2N-4 cells = details: human
VEEV (TC-83) [6] = system: VEEV (TC-83)

| Compound | titer reduction, TC-83 strain (log) (VEEV TC-83 strain) | titer reduction, TrD strain (VEEV TrD strain) | plasma and brain concentration over in vitro CPE assay EC50 ([1]; C57Bl/6, mouse) | brain average concentration ± standard deviation ([1]; C57Bl/6J, mouse) | inhibition at 10 µM (CYP2C9) | inhibition of all other targets in the collection [2] | solubility (physchem; aqueous solubility, VEEV CPE assay medium) | solubility (physchem; pH 7.4, aqueous solubility, 1× PBS, pH 7.4) | percent survival (VEEV (TC-83) [3]) | titer reduction, TC-83 strain (fold) (VEEV TC-83 strain) | titer reduction, TC-83 strain, dose response, EC90 (VEEV TC-83 strain) | inhibition at 10 µM (CYP2C19) | inhibition at 10 µM (CYP3A4) | inhibition at 10 µM (CYP2D6) | pEC50 (VEEV (TC-83) [4]) | toxicity (body weight loss, lethargy, hunched posture, ruffled fur) [5] | hepatocyte toxicity (Fa2N-4), LD50 (Fa2N-4 cells) | lipophilic ligand efficiency, LLE (VEEV (TC-83) [6]) |
| --- | --- | --- | --- | --- | --- | --- | --- | --- | --- | --- | --- | --- | --- | --- | --- | --- | --- | --- |
| CCN1CCN(Cc2nc3ccc([N+](=O)[O-])cc3c(=O)n2-c2ccccc2F)CC1 [compound 1, 2-((4-Ethylpiperazin-1-yl)methyl)-3-(2-fluorophenyl)-6-nitroquinazolin-4(3H)-one] | 0.5 log (3-fold) |  |  |  |  |  |  |  |  |  |  |  |  |  |  |  |  |  |
| CN1CCN(C)/C(=N/c2ccc([N+](=O)[O-])cc2C(=O)Nc2ccccc2)C1 [compound 45, (E)-2-((1,4-Dimethylpiperazin-2-ylidene)amino)-5-nitro-N-phenylbenzamide] |  | no measurable viral replication | > 10 fold | 0.35 ± 0.06 µM | < 30% | ≤ 36% | 13.1 µg/mL | 110 µM | 71% | 5.8 log (630 000 fold) and 7.2 log (16 million fold) | 170 nM | < 30% | < 30% | < 30% | 7.40 to 7.70 | no apparent toxicity or adverse effects were observed | > 25 µM |  |
| COc1ccc(NC(=O)c2cc([N+](=O)[O-])ccc2/N=C2\CN(C)CCN2C)cc1 [compound 51, (E)-2-((1,4-Dimethylpiperazin-2-ylidene)amino)-N-(4-methoxyphenyl)-5-nitrobenzamide] | 7.2 log (16 million fold) | no measurable viral replication |  |  |  |  |  |  |  | 7.2 log (16 million fold) | 170 nM |  |  |  |  |  |  | 4.1 |
